Experimental data: ChEMBL document CHEMBL5108051, “Improving the Antimicrobial Performance of Amphiphilic Cationic Antimicrobial Peptides Using Glutamic Acid Full-Scan and Positive Charge Compensation Strategies” (J Med Chem, 2022)
Values after ≈ are worked out from the molar mass of the structure shown. Active and inactive are the calls of the source. No cut-off for these calls is given here. Bridge positions count the residues as written; N and C are the ends. Square brackets hold non-standard residues; d marks the D form. Peptide text beside a SMILES is read from it. * marks the point of attachment. X1 = CC[C@H](C)CCCCC(=O)*; Dab = NCC[C@H](N)C(=O)O

What was measured:
Escherichia coli [1] = assay: Antibacterial activity against Escherichia coli ATCC 25922 assessed as growth inhibition measured after 18 to 24 hrs by CLSI based broth microdilution method; format: functional; settings: time 18-24 hrs
Klebsiella pneumoniae = assay: Antibacterial activity against Klebsiella pneumoniae ATCC 700603 assessed as growth inhibition measured after 18 to 24 hrs by CLSI based broth microdilution method; format: functional; settings: time 18-24 hrs
Pseudomonas aeruginosa = assay: Antibacterial activity against Pseudomonas aeruginosa ATCC 27853 assessed as growth inhibition measured after 18 to 24 hrs by CLSI based broth microdilution method; format: functional; settings: time 18-24 hrs
Bacillus subtilis = assay: Antibacterial activity against Bacillus subtilis ATCC 23857 assessed as growth inhibition measured after 18 to 24 hrs by CLSI based broth microdilution method; format: functional; settings: time 18-24 hrs
Erythrocyte = assay: Hemolytic activity against mouse RBC measured after 1 hrs; format: toxicity, cell-based
Cell membrane [2] = assay: Induction of cell membrane disruption in Escherichia coli ATCC 25922 assessed as cell morphological damage measured after 30 mins by […] electron microscope analysis; format: subcellular
[3] = Stability of the compound in mouse serum at 10 mM assessed as half life by RP-HPLC analysis; format: ADME, cell-free
Cell membrane [4] = assay: Induction of cell membrane disruption in Staphylococcus aureus ATCC 25923 assessed as cell morphological damage measured after 120 mins by […] electron microscope analysis; format: subcellular
Cell membrane [5] = assay: Induction of cell membrane disruption in Escherichia coli ATCC 25922 assessed as cell morphological damage measured after 120 mins by […] electron microscope analysis; format: subcellular
Cell membrane [6] = assay: Induction of cell membrane disruption in Escherichia coli ATCC 25922 assessed as increase in PI uptake measured after 30 to 120 mins by propidium iodide staining based FACS flow cytometry analysis (reference value: 6.0 %); format: subcellular; settings: time 30-120 min
Cell membrane [7] = assay: Induction of outer membrane permeabilization to NPN in Staphylococcus aureus ATCC 25923 cells assessed as increase in fluorescence intensity measured within 1 min by NPN fluorescent dye based microplate reader assay; format: subcellular
Cell membrane [8] = assay: Induction of outer membrane permeabilization to NPN in Escherichia coli ATCC 25922 cells assessed as increase in fluorescence intensity by NPN fluorescent dye based microplate reader assay; format: subcellular
Cell membrane [9] = assay: Induction of inner membrane permeabilization in Escherichia coli ML-35 ATCC 43837 assessed as increase in absorbance at 1 to 4 times MIC measured at 420 nm in presence of ONPG by microplate reader assay; format: subcellular; settings: DDE = dose-dependent effect
Cell membrane [10] = assay: Induction of cytoplasmic membrane depolarization in Escherichia coli ATCC 25922 assessed as increase in fluorescence intensity measured within 1 min by DiSC3-5 dye based fluorescence method; format: subcellular
Escherichia coli [11] = assay: Induction of cell membrane damage in Escherichia coli ATCC 25922 assessed as increase in nucleic acid leakage by microplate reader assay; format: functional, organism-based; settings: time 0-6 hrs, TDE = time-dependent effect
Staphylococcus aureus [12] = assay: Induction of cell membrane damage in Staphylococcus aureus ATCC 25923 assessed as increase in nucleic acid leakage by microplate reader assay; format: functional, organism-based; settings: time 0-6 hrs, TDE = time-dependent effect
Staphylococcus aureus [13] = assay: Antibacterial activity against Staphylococcus aureus ATCC 25923 assessed as resistance development measured after 15 passages at sub-MIC concentration by resistance development assay; format: functional, organism-based
Staphylococcus aureus [14] = assay: Antibacterial activity against Staphylococcus aureus ATCC 25923 assessed as fractional inhibitory concentration index in presence of vancomycin by checkerboard assay; format: functional
Staphylococcus aureus [15] = assay: Antibacterial activity against Staphylococcus aureus ATCC 25923 assessed as fractional inhibitory concentration index in presence of kanamycin by checkerboard assay; format: functional
Staphylococcus aureus [16] = assay: Antibacterial activity against Staphylococcus aureus ATCC 25923 assessed as fractional inhibitory concentration index in presence of gentamicin by checkerboard assay; format: functional
Staphylococcus aureus [17] = assay: Antibacterial activity against rifampin resistant Staphylococcus aureus ATCC 25923 assessed as fractional inhibitory concentration index in presence of rifampin by checkerboard assay; format: functional
Staphylococcus aureus [18] = assay: Antibacterial activity against rifampin resistant Staphylococcus aureus ATCC 25923 assessed as fractional inhibitory concentration index in presence of vancomycin by checkerboard assay; format: functional
Staphylococcus aureus [19] = assay: Antibacterial activity against rifampin resistant Staphylococcus aureus ATCC 25923 assessed as fractional inhibitory concentration index in presence of kanamycin by checkerboard assay; format: functional
Staphylococcus aureus [20] = assay: Antibacterial activity against rifampin resistant Staphylococcus aureus ATCC 25923 assessed as fractional inhibitory concentration index in presence of gentamicin by checkerboard assay; format: functional
Staphylococcus aureus [21] = assay: Antibacterial activity against gentamicin resistant Staphylococcus aureus ATCC 25923 assessed as fractional inhibitory concentration index in presence of rifampin by checkerboard assay; format: functional
Staphylococcus aureus [22] = assay: Antibacterial activity against gentamicin resistant Staphylococcus aureus ATCC 25923 assessed as fractional inhibitory concentration index in presence of kanamycin by checkerboard assay; format: functional
Staphylococcus aureus [23] = assay: Antibacterial activity against gentamicin resistant Staphylococcus aureus ATCC 25923 assessed as fractional inhibitory concentration index in presence of gentamicin by checkerboard assay; format: functional
Escherichia coli [24] = assay: Antibacterial activity against Escherichia coli ATCC 25922 assessed as fractional inhibitory concentration index in presence of vancomycin by checkerboard assay; format: functional
Escherichia coli [25] = assay: Antibacterial activity against Escherichia coli ATCC 25922 assessed as fractional inhibitory concentration index in presence of kanamycin by checkerboard assay; format: functional
Escherichia coli [26] = assay: Antibacterial activity against Escherichia coli ATCC 25922 assessed as fractional inhibitory concentration index in presence of gentamicin by checkerboard assay; format: functional
Escherichia coli [27] = assay: Antibacterial activity against rifampin resistant Escherichia coli ATCC 25922 assessed as fractional inhibitory concentration index in presence of rifampin by checkerboard assay; format: functional
Escherichia coli [28] = assay: Antibacterial activity against rifampin resistant Escherichia coli ATCC 25922 assessed as fractional inhibitory concentration index in presence of kanamycin by checkerboard assay; format: functional
Escherichia coli [29] = assay: Antibacterial activity against rifampin resistant Escherichia coli ATCC 25922 assessed as fractional inhibitory concentration index in presence of gentamicin by checkerboard assay; format: functional
Escherichia coli [30] = assay: Antibacterial activity against gentamicin resistant Escherichia coli ATCC 25922 assessed as fractional inhibitory concentration index in presence of rifampin by checkerboard assay; format: functional
Escherichia coli [31] = assay: Antibacterial activity against gentamicin resistant Escherichia coli ATCC 25922 assessed as fractional inhibitory concentration index in presence of vancomycin by checkerboard assay; format: functional
Escherichia coli [32] = assay: Antibacterial activity against gentamicin resistant Escherichia coli ATCC 25922 assessed as fractional inhibitory concentration index in presence of kanamycin by checkerboard assay; format: functional
Escherichia coli [33] = assay: Antibacterial activity against gentamicin resistant Escherichia coli ATCC 25922 assessed as fractional inhibitory concentration index in presence of gentamicin by checkerboard assay; format: functional
[34] = Acute toxicity in BALB/c mouse assessed as mortality at 80 mg/kg, ip administered as single dose measured for 7 days; format: organism-based; settings: in vivo, ip, 80 mg/kg, 168 h, time 7 day
[35] = Acute toxicity in BALB/c mouse assessed as pathological changes in liver at 20 to 80 mg/kg, ip administered as single dose measured for 7 days by H and E staining method; format: organism-based; settings: in vivo, 168 h, dose 20-80 mg/kg, time 7 day
[36] = Retention time of the compound by RP-HPLC analysis; format: physicochemical

## CC[C@H](C)CCCCC(=O)N[C@@H](CCN)C(=O)N[C@H](C(=O)N[C@@H](CCN)C(=O)N[C@H]1CCNC(=O)[C@H]([C@@H](C)O)NC(=O)[C@H](CCN)NC(=O)[C@H](CCN)NC(=O)[C@H](CC(C)C)NC(=O)[C@@H](Cc2ccccc2)NC(=O)[C@H](CCN)NC1=O)[C@@H](C)O (X1-[Dab]T[Dab][Dab][Dab][dF]L[Dab][Dab]T; lactam 4-C)
Escherichia coli [1]
  MIC: 4 µM (≈ 4.81 µg/mL)
Klebsiella pneumoniae
  MIC: 4 µM (≈ 4.81 µg/mL)
Pseudomonas aeruginosa
  MIC: 2 µM (≈ 2.41 µg/mL)
Bacillus subtilis
  MIC: 4 µM (≈ 4.81 µg/mL)
Erythrocyte
  MHC10: > 256 µM
Cell membrane [2]
  Activity: Active
[3]
  half-life at 10000 µM: 12.5 h
Cell membrane [4]
  Activity: Active
Cell membrane [5]
  Activity: Active
Cell membrane [6]
  Activity: 38.5%
Cell membrane [7]
  Activity: Active
Cell membrane [8]
  Activity: Active
Cell membrane [9]
  Activity: Dde
Cell membrane [10]
  Activity: Active
Escherichia coli [11]
  Activity: Tde
Staphylococcus aureus [12]
  Activity: Tde
Staphylococcus aureus [13]
  Activity: Active
Staphylococcus aureus [14]
  fractional inhibitory concentration index (FICI): 1.0625
Staphylococcus aureus [15]
  fractional inhibitory concentration index (FICI): 0.75
Staphylococcus aureus [16]
  fractional inhibitory concentration index (FICI): 0.75
Staphylococcus aureus [17]
  fractional inhibitory concentration index (FICI): 1
Staphylococcus aureus [18]
  fractional inhibitory concentration index (FICI): 1
Staphylococcus aureus [19]
  fractional inhibitory concentration index (FICI): 0.625
Staphylococcus aureus [20]
  fractional inhibitory concentration index (FICI): 0.375
Staphylococcus aureus [21]
  fractional inhibitory concentration index (FICI): 0.5625
Staphylococcus aureus [22]
  fractional inhibitory concentration index (FICI): 0.625
Staphylococcus aureus [23]
  fractional inhibitory concentration index (FICI): 0.5
Escherichia coli [24]
  fractional inhibitory concentration index (FICI): 0.375
Escherichia coli [25]
  fractional inhibitory concentration index (FICI): 0.375
Escherichia coli [26]
  fractional inhibitory concentration index (FICI): 0.375
Escherichia coli [27]
  fractional inhibitory concentration index (FICI): 0.5625
Escherichia coli [28]
  fractional inhibitory concentration index (FICI): 0.375
Escherichia coli [29]
  fractional inhibitory concentration index (FICI): 0.375
Escherichia coli [30]
  fractional inhibitory concentration index (FICI): 0.375
Escherichia coli [31]
  fractional inhibitory concentration index (FICI): 0.3125
Escherichia coli [32]
  fractional inhibitory concentration index (FICI): 0.375
Escherichia coli [33]
  fractional inhibitory concentration index (FICI): 0.625
[34]
  Activity: Toxic
[35]
  Activity: Non-Toxic
[36]
  Retention_time: 13.125 min
